Among the data in patent US9204653B2, “5-fluoro pyrimidine derivatives” (DOW AGROSCIENCES LLC, priority 2008, dated 2015) are pest or weed control values, retold here.

Molecules are shown by their SMILES. Like-named read-outs stand apart in the source and are kept apart here.

For experiment [1], the system named is Mycosphaerella graminicola; Anamorph: Septoria tritici; Bayer Code SEPTTR. Nature of the experiment: Leaf blotch of wheat, foliar fungicide treatment, one day protectant (1DP) or three day curative (3DC). The class given is in vivo, Septoria tritici on wheat plants (variety Yuma). The settings on record: Zymoseptoria tritici, rating of percent disease control.

The subject of experiment [2] is Venturia inaequalis; Bayer Code VENTIN. Briefly: Apple scab. The class given is in vivo. The settings on record: 24 h, % disease control rating, one day protectant; for pest or weed control at 25 ppm: read-out: VENTIN 1 DP 25 ppm; for pest or weed control at 75 ppm: read-out: VENTIN 1 DP 75 ppm.
Experiment [3] relates to Cercospora beticola; Bayer Code CERCBE. Nature of the experiment: Leaf spot of sugar beets. The class given is in vivo, Cercospora beticola on sugar beets (variety HH-88). As to conditions: 24 h, % disease control rating, one day protectant; for pest or weed control at 25 ppm: read-out: CERCBE 1 DP 25 ppm; for pest or weed control at 75 ppm: read-out: CERCBE 1 DP 75 ppm.
The mark [4] stands for this setting: 24 h, one day protectant (1DP), read-out: SETTTR 1DP 25 ppm.
Where [5] appears, read: 24 h, one day protectant (1DP), read-out: SEPTTR 1DP 100 ppm.
[6] abbreviates: 72 h, three day curative (3DC), read-out: SEPTTR 3DC 25 ppm.
Where [7] appears, read: 72 h, three day curative (3DC), read-out: SEPTTR 3DC 100 ppm.

Consider `CN(C)/C=N/c1nc(OCCNc2ccccc2)ncc1F` [Compound 248], for which the pest or weed control at 25 ppm in experiment [1] (setting [4]) fell in the range of 0 to 25%; in experiment [1] (setting [6]) it was 76 to 100%; in experiment [2] it was 0 to 25%; in experiment [3], 0 to 25%. Also, the pest or weed control at 100 ppm in experiment [1] (setting [5]) and in experiment [1] (setting [7]) was 76 to 100% throughout. Besides, the pest or weed control at 75 ppm in experiment [2] was in the range of 51 to 75%; in experiment [3] it was 0 to 25%.

On to `Cc1oc(-c2ccccc2)cc1COc1ncc(F)c(N)n1` [Compound 251], for which the pest or weed control at 25 ppm in experiment [1] (setting [4]) fell in the range of 76 to 100%; in experiment [1] (setting [6]), 76 to 100%; in experiment [2] it was 76 to 100%; in experiment [3], 0 to 25%. In addition, the pest or weed control at 100 ppm in experiment [1] (setting [5]) and in experiment [1] (setting [7]) was 76 to 100% each time. For the same compound, the figures for the pest or weed control at 75 ppm in experiment [2] and in experiment [3] were 76 to 100% and 51 to 75%, respectively.

`CN(C)/C=N/c1nc(OC(=O)c2ccc(Cl)cc2Cl)ncc1F` [Compound 260]: the pest or weed control at 25 ppm in experiment [1] (setting [4]), in experiment [1] (setting [6]), in experiment [2] and in experiment [3] was 76 to 100% each time. Further, the pest or weed control at 100 ppm in experiment [1] (setting [5]) and in experiment [1] (setting [7]) was 76 to 100% in each case. Also, the pest or weed control at 75 ppm was in the range of 76 to 100% in experiment [2] and 51 to 75% in experiment [3].

Turning to `Nc1nc(OCCN2CCCC2=O)ncc1F` [Compound 270], the pest or weed control at 25 ppm lay within 0 to 25% in experiment [1] (setting [4]), 0 to 25% in experiment [1] (setting [6]), 0 to 25% in experiment [2] and 26 to 50% in experiment [3]. Further, the pest or weed control at 100 ppm in experiment [1] (setting [5]) and in experiment [1] (setting [7]) was 0 to 25% each time. The pest or weed control at 75 ppm in experiment [2] and in experiment [3] was 26 to 50% each time.

`Nc1nc(OCc2ccc(F)cc2C(F)(F)F)ncc1F` [Compound 271]: the pest or weed control at 25 ppm was in the range of 76 to 100% in experiment [1] (setting [4]), 51 to 75% in experiment [1] (setting [6]), 26 to 50% in experiment [2] and 26 to 50% in experiment [3]. Also, the pest or weed control at 100 ppm in experiment [1] (setting [5]) and in experiment [1] (setting [7]) was 76 to 100% throughout. Also, the pest or weed control at 75 ppm in experiment [2] lay in the range of 51 to 75%; in experiment [3], 26 to 50%.

Take `COc1cc(COc2ncc(F)c(N)n2)cc(Cl)n1` [Compound 311]: the pest or weed control at 25 ppm in experiment [1] (setting [4]) lay within 76 to 100%; in experiment [1] (setting [6]) it was 76 to 100%; in experiment [2], 26 to 50%; in experiment [3], 26 to 50%. Moreover, the pest or weed control at 100 ppm in experiment [1] (setting [5]) and in experiment [1] (setting [7]) was 76 to 100% in each case. Also, the pest or weed control at 75 ppm in experiment [2] and in experiment [3] was 26 to 50% throughout.

Regarding `Nc1nc(OCc2ccc(-c3ccccn3)s2)ncc1F` [Compound 316], the pest or weed control at 25 ppm in experiment [1] (setting [4]) fell in the range of 76 to 100%; in experiment [1] (setting [6]) it was 76 to 100%; in experiment [2], 76 to 100%; in experiment [3], 51 to 75%. Moreover, the pest or weed control at 100 ppm in experiment [1] (setting [5]) and in experiment [1] (setting [7]) was 76 to 100% throughout. The pest or weed control at 75 ppm in experiment [2] and in experiment [3] was 76 to 100% throughout.

Regarding `CC(Oc1ncc(F)c(N)n1)c1cccc2ccccc12` (stereo not shown) [Compound 335], the pest or weed control at 25 ppm in experiment [1] (setting [4]) fell in the range of 76 to 100%; in experiment [1] (setting [6]), 76 to 100%; in experiment [2], 76 to 100%; in experiment [3] it was 26 to 50%. Further, the pest or weed control at 100 ppm in experiment [1] (setting [5]) and in experiment [1] (setting [7]) was 76 to 100% throughout. Also, the pest or weed control at 75 ppm in experiment [2] and in experiment [3] was 76 to 100% in each case.

As to `CS(=O)(=O)Oc1ncc(F)c(N)n1` [Compound 337], the pest or weed control at 25 ppm was in the range of 26 to 50% in experiment [1] (setting [4]), 26 to 50% in experiment [1] (setting [6]), 51 to 75% in experiment [2] and 51 to 75% in experiment [3]. Further, the pest or weed control at 100 ppm was in the range of 76 to 100% in experiment [1] (setting [5]) and 26 to 50% in experiment [1] (setting [7]). The pest or weed control at 75 ppm in experiment [2] and in experiment [3] was 76 to 100% throughout.

Turning to `COc1c(F)cccc1COc1ncc(F)c(N)n1` [Compound 341], the pest or weed control at 25 ppm fell in the range of 76 to 100% in experiment [1] (setting [4]), 76 to 100% in experiment [1] (setting [6]), 26 to 50% in experiment [2] and 0 to 25% in experiment [3]. Also, the pest or weed control at 100 ppm in experiment [1] (setting [5]) and in experiment [1] (setting [7]) was 76 to 100% in each case. The pest or weed control at 75 ppm in experiment [2] and in experiment [3] was 0 to 25% in each case.

On to `Nc1nc(OCc2ccccc2N2CCOCC2)ncc1F` [Compound 342], for which the pest or weed control at 25 ppm was 76 to 100% in experiment [1] (setting [4]), 76 to 100% in experiment [1] (setting [6]), 76 to 100% in experiment [2] and 26 to 50% in experiment [3]. Also, the pest or weed control at 100 ppm in experiment [1] (setting [5]) and in experiment [1] (setting [7]) was 76 to 100% throughout. Besides, the pest or weed control at 75 ppm in experiment [2] and in experiment [3] was 76 to 100% each time.

For the compound `CCOCNc1nc(OCc2cccs2)ncc1F` [Compound 343], the pest or weed control at 25 ppm lay in the range of 26 to 50% in experiment [1] (setting [4]), 76 to 100% in experiment [1] (setting [6]), 76 to 100% in experiment [2] and 76 to 100% in experiment [3]. The pest or weed control at 100 ppm in experiment [1] (setting [5]) and in experiment [1] (setting [7]) was 76 to 100% throughout. For the same compound, the pest or weed control at 75 ppm in experiment [2] fell in the range of 51 to 75%; in experiment [3], 76 to 100%.

For the compound `CCNN(CC)c1nc(OCc2ccc(F)cc2)ncc1F` [Compound 352], the pest or weed control at 25 ppm in experiment [1] (setting [4]), in experiment [1] (setting [6]), in experiment [2] and in experiment [3] was 0 to 25% in each case. Besides, the pest or weed control at 100 ppm in experiment [1] (setting [5]) and in experiment [1] (setting [7]) was 0 to 25% each time. Besides, the results for the pest or weed control at 75 ppm in experiment [2] and in experiment [3] were 26 to 50% and 0 to 25%, respectively.

Consider `NN(c1nc(OCc2ccc(F)cc2)ncc1F)C1CCCCC1` [Compound 353], for which the pest or weed control at 25 ppm in experiment [1] (setting [4]) was 0 to 25%; in experiment [1] (setting [6]) it was 0 to 25%; in experiment [2] it was 26 to 50%; in experiment [3], 26 to 50%. The pest or weed control at 100 ppm in experiment [1] (setting [5]) and in experiment [1] (setting [7]) was 0 to 25% each time. For the same compound, the pest or weed control at 75 ppm in experiment [2] fell in the range of 76 to 100%; in experiment [3], 26 to 50%.

For `CC(Oc1ncc(F)c(N)n1)c1ccc(C(F)(F)F)nc1` (stereo not shown) [Compound 356], the pest or weed control at 25 ppm in experiment [1] (setting [4]) lay within 26 to 50%; in experiment [1] (setting [6]) it was 26 to 50%; in experiment [2], 51 to 75%; in experiment [3], 51 to 75%. In addition, the pest or weed control at 100 ppm in experiment [1] (setting [5]) and in experiment [1] (setting [7]) was 51 to 75% in each case. Moreover, the pest or weed control at 75 ppm in experiment [2] is 26 to 50%; in experiment [3], 0 to 25%.

In the case of `Nc1nc(OCC2CCCC2)ncc1F` [Compound 370], the pest or weed control at 25 ppm in experiment [1] (setting [4]) lay within 0 to 25%; in experiment [1] (setting [6]), 0 to 25%; in experiment [2], 26 to 50%; in experiment [3] it was 26 to 50%. Also, the pest or weed control at 100 ppm in experiment [1] (setting [5]) and in experiment [1] (setting [7]) was 0 to 25% throughout. Moreover, the pest or weed control at 75 ppm in experiment [2] and in experiment [3] was 26 to 50% throughout.

On to `Fc1cnc(OCc2ccccc2)nc1NNc1ccccn1` [Compound 373], for which the pest or weed control at 25 ppm in experiment [1] (setting [4]) fell in the range of 0 to 25%; in experiment [1] (setting [6]), 26 to 50%; in experiment [2], 0 to 25%; in experiment [3] it was 0 to 25%. The pest or weed control at 100 ppm lay in the range of 0 to 25% in experiment [1] (setting [5]) and 51 to 75% in experiment [1] (setting [7]). Further, the values for the pest or weed control at 75 ppm in experiment [2] and in experiment [3] were 26 to 50% and 0 to 25%, respectively.

Consider `CN1CCCC1CCOc1ncc(F)c(N)n1` (stereo not shown) [Compound 384], for which the pest or weed control at 25 ppm lay within 51 to 75% in experiment [1] (setting [4]), 26 to 50% in experiment [1] (setting [6]), 51 to 75% in experiment [2] and 0 to 25% in experiment [3]. In addition, the pest or weed control at 100 ppm in experiment [1] (setting [5]) and in experiment [1] (setting [7]) was 76 to 100% in each case. Further, the pest or weed control at 75 ppm in experiment [2] and in experiment [3] was 0 to 25% each time.

On to `O=C(OCNc1nc(OCc2ccc(F)cc2)ncc1F)C1CC1` [Compound 410], for which the pest or weed control at 25 ppm in experiment [1] (setting [4]) lay in the range of 51 to 75%; in experiment [1] (setting [6]) it was 51 to 75%; in experiment [2] it was 26 to 50%; in experiment [3] it was 26 to 50%. Besides, the pest or weed control at 100 ppm in experiment [1] (setting [5]) and in experiment [1] (setting [7]) was 76 to 100% each time. The pest or weed control at 75 ppm lay within 51 to 75% in experiment [2] and 26 to 50% in experiment [3].

For the compound `O=C(Nc1nc(OCc2ccc(F)cc2)ncc1F)c1cccc2nnsc12` [Compound 411], the pest or weed control at 25 ppm in experiment [1] (setting [4]) fell in the range of 76 to 100%; in experiment [1] (setting [6]), 26 to 50%; in experiment [2], 51 to 75%; in experiment [3], 26 to 50%. The figures for the pest or weed control at 100 ppm in experiment [1] (setting [5]) and in experiment [1] (setting [7]) were 76 to 100% and 26 to 50%, respectively. Besides, the pest or weed control at 75 ppm was 51 to 75% in experiment [2] and 26 to 50% in experiment [3].
